Columns and labels:
SK-MEL-5 = experiment: NCI-60 single-dose screen; type: cell-based; conditions: Homo sapiens, single dose 10 µM, '-' = no inhibition, read-out: % Growth Inhibition
Method in brief: (§1)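 Was run as a one-dose (10 μM) screen by the NCI Developmental Therapeutics Program, covering 60 tumour cell lines from nine cancer types including renal, melanoma and CNS.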

KM12 = experiment: NCI-60 single-dose screen; type: cell-based; conditions: Homo sapiens, single dose 10 µM, '-' = no inhibition, read-out: % Growth Inhibition
Method in brief: as §1

MOLT-4 = experiment: NCI-60 single-dose screen; type: cell-based; conditions: Homo sapiens, single dose 10 µM, '-' = no inhibition, read-out: % Growth Inhibition
Method in brief: as §1

ACHN 1 = experiment: NCI-60 single-dose screen; type: cell-based; conditions: Homo sapiens, single dose 10 µM, '-' = no inhibition, read-out: % Growth Inhibition
Method in brief: as §1

M14 = experiment: NCI-60 single-dose screen; type: cell-based; conditions: Homo sapiens, single dose 10 µM, '-' = no inhibition, read-out: % Growth Inhibition
Method in brief: as §1

HCT-15 = experiment: NCI-60 single-dose screen; type: cell-based; conditions: Homo sapiens, single dose 10 µM, '-' = no inhibition, read-out: % Growth Inhibition
Method in brief: as §1

SK-OV-3 = experiment: NCI-60 single-dose screen; type: cell-based; conditions: Homo sapiens, single dose 10 µM, '-' = no inhibition, read-out: % Growth Inhibition
Method in brief: as §1

CCRF-CEM = experiment: NCI-60 single-dose screen; type: cell-based; conditions: Homo sapiens, single dose 10 µM, '-' = no inhibition, read-out: % Growth Inhibition
Method in brief: as §1

HCC-2998 = experiment: NCI-60 single-dose screen; type: cell-based; conditions: Homo sapiens, single dose 10 µM, '-' = no inhibition, read-out: % Growth Inhibition
Method in brief: as §1

NCI-H322M = experiment: NCI-60 single-dose screen; type: cell-based; conditions: Homo sapiens, single dose 10 µM, '-' = no inhibition, read-out: % Growth Inhibition
Method in brief: as §1

HL-60(TB) = experiment: NCI-60 single-dose screen; type: cell-based; conditions: Homo sapiens, single dose 10 µM, '-' = no inhibition, read-out: % Growth Inhibition
SK-MEL-28 = experiment: NCI-60 single-dose screen; type: cell-based; conditions: Homo sapiens, single dose 10 µM, '-' = no inhibition, read-out: % Growth Inhibition
Method in brief: as §1

HT29 = experiment: NCI-60 single-dose screen; type: cell-based; conditions: Homo sapiens, HT-29, single dose 10 µM, '-' = no inhibition, read-out: % Growth Inhibition
Method in brief: as §1

NCI-H522 = experiment: NCI-60 single-dose screen; type: cell-based; conditions: Homo sapiens, single dose 10 µM, '-' = no inhibition, read-out: % Growth Inhibition
Method in brief: as §1

CAKI-1 = experiment: NCI-60 single-dose screen; type: cell-based; conditions: Homo sapiens, single dose 10 µM, '-' = no inhibition, read-out: % Growth Inhibition
Method in brief: as §1

K-562 = experiment: NCI-60 single-dose screen; type: cell-based; conditions: Homo sapiens, K562, single dose 10 µM, '-' = no inhibition, read-out: % Growth Inhibition
Method in brief: as §1

A498 = experiment: NCI-60 single-dose screen; type: cell-based; conditions: Homo sapiens, single dose 10 µM, '-' = no inhibition, read-out: % Growth Inhibition
Method in brief: as §1

SF-268 = experiment: NCI-60 single-dose screen; type: cell-based; conditions: Homo sapiens, single dose 10 µM, '-' = no inhibition, read-out: % Growth Inhibition
Method in brief: as §1

NCI-H460 = experiment: NCI-60 single-dose screen; type: cell-based; conditions: Homo sapiens, single dose 10 µM, '-' = no inhibition, read-out: % Growth Inhibition
Method in brief: as §1

OVCAR-5 = experiment: NCI-60 single-dose screen; type: cell-based; conditions: Homo sapiens, single dose 10 µM, '-' = no inhibition, read-out: % Growth Inhibition
Method in brief: as §1

DU-145 = experiment: NCI-60 single-dose screen; type: cell-based; conditions: Homo sapiens, single dose 10 µM, '-' = no inhibition, read-out: % Growth Inhibition
Method in brief: as §1

OVCAR-4 = experiment: NCI-60 single-dose screen; type: cell-based; conditions: Homo sapiens, single dose 10 µM, '-' = no inhibition, read-out: % Growth Inhibition
Method in brief: as §1

TK-10 = experiment: NCI-60 single-dose screen; type: cell-based; conditions: Homo sapiens, single dose 10 µM, '-' = no inhibition, read-out: % Growth Inhibition
Method in brief: as §1

UACC-62 = experiment: NCI-60 single-dose screen; type: cell-based; conditions: Homo sapiens, single dose 10 µM, '-' = no inhibition, read-out: % Growth Inhibition
Method in brief: as §1

SF-295 = experiment: NCI-60 single-dose screen; type: cell-based; conditions: Homo sapiens, single dose 10 µM, '-' = no inhibition, read-out: % Growth Inhibition
Method in brief: as §1

SK-MEL-2 = experiment: NCI-60 single-dose screen; type: cell-based; conditions: Homo sapiens, single dose 10 µM, '-' = no inhibition, read-out: % Growth Inhibition
Method in brief: as §1

HOP-62 = experiment: NCI-60 single-dose screen; type: cell-based; conditions: Homo sapiens, single dose 10 µM, '-' = no inhibition, read-out: % Growth Inhibition
Method in brief: as §1

SW-620 = experiment: NCI-60 single-dose screen; type: cell-based; conditions: Homo sapiens, single dose 10 µM, '-' = no inhibition, read-out: % Growth Inhibition
Method in brief: as §1

NCI-H23 = experiment: NCI-60 single-dose screen; type: cell-based; conditions: Homo sapiens, single dose 10 µM, '-' = no inhibition, read-out: % Growth Inhibition
Method in brief: as §1

786-0 = experiment: NCI-60 single-dose screen; type: cell-based; conditions: Homo sapiens, single dose 10 µM, '-' = no inhibition, read-out: % Growth Inhibition
Method in brief: as §1

MDA-MB-468 = experiment: NCI-60 single-dose screen; type: cell-based; conditions: Homo sapiens, single dose 10 µM, '-' = no inhibition, read-out: % Growth Inhibition
Method in brief: as §1

U251 = experiment: NCI-60 single-dose screen; type: cell-based; conditions: Homo sapiens, U-251, single dose 10 µM, '-' = no inhibition, read-out: % Growth Inhibition
Method in brief: as §1

T-47D = experiment: NCI-60 single-dose screen; type: cell-based; conditions: Homo sapiens, T47D, single dose 10 µM, '-' = no inhibition, read-out: % Growth Inhibition
Method in brief: as §1

LOX IMVI = experiment: NCI-60 single-dose screen; type: cell-based; conditions: Homo sapiens, single dose 10 µM, '-' = no inhibition, read-out: % Growth Inhibition
Method in brief: as §1

| Structure (SMILES) | inhibition at 10 µM (SK-MEL-5) [%] | inhibition at 10 µM (KM12) [%] | inhibition at 10 µM (MOLT-4) [%] | inhibition at 10 µM (ACHN 1) [%] | inhibition at 10 µM (M14) [%] | inhibition at 10 µM (HCT-15) [%] | inhibition at 10 µM (SK-OV-3) [%] | inhibition at 10 µM (CCRF-CEM) [%] | inhibition at 10 µM (HCC-2998) [%] | inhibition at 10 µM (NCI-H322M) [%] | inhibition at 10 µM (HL-60(TB)) [%] | inhibition at 10 µM (SK-MEL-28) [%] | inhibition at 10 µM (HT29) [%] | inhibition at 10 µM (NCI-H522) [%] | inhibition at 10 µM (CAKI-1) [%] | inhibition at 10 µM (K-562) [%] | inhibition at 10 µM (A498) [%] | inhibition at 10 µM (SF-268) [%] | inhibition at 10 µM (NCI-H460) [%] | inhibition at 10 µM (OVCAR-5) [%] | further results |
| --- | --- | --- | --- | --- | --- | --- | --- | --- | --- | --- | --- | --- | --- | --- | --- | --- | --- | --- | --- | --- | --- |
| CCCSc1nc(-c2ccc(Cl)cc2)cc(-c2ccc(OC)cc2)n1 [Compound 11, 4-(4-Chlorophenyl)-6-(4-methoxyphenyl)-2-(propylthio)pyrimidine] | 3.98 | 1.24 | 2.06 | < 0 | < 0 | 7.25 | < 0 | 1.71 | < 0 | < 0 | 13.5 | < 0 | 10.7 | 9.17 | 7.98 | 6.55 | 2.73 | < 0 | < 0 | < 0 | inhibition at 10 µM (DU-145): 0.44%; inhibition at 10 µM (OVCAR-4): < 0%; inhibition at 10 µM (TK-10): < 0%; inhibition at 10 µM (UACC-62): 18.1%; inhibition at 10 µM (SF-295): 6.79%; inhibition at 10 µM (SK-MEL-2): 7.18%; inhibition at 10 µM (HOP-62): < 0%; inhibition at 10 µM (SW-620): 0.11%; inhibition at 10 µM (NCI-H23): < 0%; inhibition at 10 µM (786-0): 0.11%; inhibition at 10 µM (MDA-MB-468): 7.92%; inhibition at 10 µM (U251): 5.99%; inhibition at 10 µM (T-47D): 8.26%; inhibition at 10 µM (LOX IMVI): < 0%; melting point: 228 to 230 °C |
| COc1ccc(-c2cc(-c3cccc(OC)c3)nc(SC(C)C)n2)cc1 [Compound 19, 2-(Isopropylthio)-6-(3-methoxyphenyl)-4-(4-methoxyphenyl)pyrimidine] | 7.31 | 5.72 | 23.8 | < 0 | < 0 | 24.5 | < 0 | 9.07 | < 0 | 4.92 | 22.6 | < 0 | 32.5 | 21 | 24.1 | 29.5 | < 0 | 9.81 | 2.13 | 0.61 | inhibition at 10 µM (DU-145): 4.58%; inhibition at 10 µM (OVCAR-4): 4.28%; inhibition at 10 µM (TK-10): < 0%; inhibition at 10 µM (UACC-62): 25.5%; inhibition at 10 µM (SF-295): 4.16%; inhibition at 10 µM (SK-MEL-2): 7.18%; inhibition at 10 µM (HOP-62): < 0%; inhibition at 10 µM (SW-620): < 0%; inhibition at 10 µM (NCI-H23): 8.76%; inhibition at 10 µM (786-0): 4.09%; inhibition at 10 µM (MDA-MB-468): 20.2%; inhibition at 10 µM (U251): 10.2%; inhibition at 10 µM (T-47D): 24.6%; inhibition at 10 µM (LOX IMVI): 6.05%; melting point: 235 to 237 °C |
